Molecular target: T1, F508delCFTR cell surface expression in CFBE41o-F508delCFTR-HRP cells (Homo sapiens, UniProt P13569, DEL508-508)
T1 construct: fused on or other part: Horseradish peroxidase (HRP) reporter inserted in the fourth exofacial (extracellular) loop of CFTR; expression is doxycycline-inducible
Test: Cell Surface Expression-Horse Radish Peroxidase (CSE-HRP) Assay
Type: cell-based
Conditions: for EC50: CFBE41o-F508delCFTR-HRP cells, 18-24 hours at 33° C., 8-point curve, highest concentration 20 μM; for Maximum % activity (%): maximum at any tested concentration, normalized to on-plate positive control (3 μM)
How it was run: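 CFBE41o- cells with HRP-tagged F508delCFTR, expression induced by 0.5 μg/mL doxycycline for 72 h at 37 °C, then compound for 18-24 h at 33 °C (8-point, 3-fold, top 20 μM). Surface HRP measured by luminol luminescence; % activity normalised to 3 μM positive-control corrector; EC50 from variable-slope sigmoidal fit, three replicate plates.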

T1 sequence (P13569 with tags, fused parts or gaps DEL508-508 limits assumed): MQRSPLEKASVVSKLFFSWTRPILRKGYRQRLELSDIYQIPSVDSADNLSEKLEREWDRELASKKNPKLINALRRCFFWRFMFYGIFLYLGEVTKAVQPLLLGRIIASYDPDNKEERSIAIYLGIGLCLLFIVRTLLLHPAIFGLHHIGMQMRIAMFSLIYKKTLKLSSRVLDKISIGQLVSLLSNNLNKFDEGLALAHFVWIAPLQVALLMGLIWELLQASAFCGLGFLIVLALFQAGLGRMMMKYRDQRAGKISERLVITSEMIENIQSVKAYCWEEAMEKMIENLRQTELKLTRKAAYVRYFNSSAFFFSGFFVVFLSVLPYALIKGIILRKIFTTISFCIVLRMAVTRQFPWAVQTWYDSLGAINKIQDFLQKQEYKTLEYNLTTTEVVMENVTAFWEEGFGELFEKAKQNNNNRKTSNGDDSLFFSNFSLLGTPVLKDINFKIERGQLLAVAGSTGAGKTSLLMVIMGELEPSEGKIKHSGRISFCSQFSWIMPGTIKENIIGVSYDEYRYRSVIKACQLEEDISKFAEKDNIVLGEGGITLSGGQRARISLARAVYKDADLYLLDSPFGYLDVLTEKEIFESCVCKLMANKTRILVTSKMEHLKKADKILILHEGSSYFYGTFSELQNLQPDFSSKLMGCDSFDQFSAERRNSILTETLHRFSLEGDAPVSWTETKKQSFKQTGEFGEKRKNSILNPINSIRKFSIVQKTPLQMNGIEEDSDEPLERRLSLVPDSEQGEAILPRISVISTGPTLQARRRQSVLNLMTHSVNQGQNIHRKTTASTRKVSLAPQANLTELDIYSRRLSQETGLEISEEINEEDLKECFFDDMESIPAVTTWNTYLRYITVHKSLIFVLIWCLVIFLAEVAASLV
T1 sequence (P13569 919-1480 limits assumed, stated change not applied): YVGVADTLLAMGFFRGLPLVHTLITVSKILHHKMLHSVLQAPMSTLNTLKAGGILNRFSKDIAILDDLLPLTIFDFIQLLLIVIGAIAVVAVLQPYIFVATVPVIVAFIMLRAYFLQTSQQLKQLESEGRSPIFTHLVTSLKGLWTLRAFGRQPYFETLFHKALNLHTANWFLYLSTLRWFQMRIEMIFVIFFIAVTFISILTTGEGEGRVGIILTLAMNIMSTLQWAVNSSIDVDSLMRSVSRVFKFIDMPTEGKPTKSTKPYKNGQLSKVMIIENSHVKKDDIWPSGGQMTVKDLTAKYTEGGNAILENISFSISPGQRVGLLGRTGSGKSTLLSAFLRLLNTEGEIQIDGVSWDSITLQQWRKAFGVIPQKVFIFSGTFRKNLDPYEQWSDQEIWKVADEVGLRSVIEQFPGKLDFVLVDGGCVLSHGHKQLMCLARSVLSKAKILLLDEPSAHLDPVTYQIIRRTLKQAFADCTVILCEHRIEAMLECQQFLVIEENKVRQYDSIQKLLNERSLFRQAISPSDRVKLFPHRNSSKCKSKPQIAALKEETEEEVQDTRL

Row | Structure (SMILES) | EC50 | Maximum % activity (%)
1 | CC1(C)OC[C@H](CN2CCC([C@H]3C[C@@H](NC(=O)[C@@]4(C)COc5cc6c(cc54)OC(F)(F)O6)c4ccc(OC(F)(F)F)cc4O3)CC2)O1 [Example 247, (7R)—N-[(2R,4R)-2-(1-{[(4S)-2,2-dimethyl-1,3-dioxolan-4-yl]methyl}piperidin-4-yl)-7-(trifluoromethoxy)-3,4-dihydro-2H-1-benzopyran-4-yl]-2,2-difluoro-7-methyl-6,7-dihydro-2H-furo[2,3-f][1,3]benzodioxole-7-carboxamide] | 1180 nM | 181%
2 | CCN(CCO)C(=O)[C@H]1CC[C@H]([C@H]2C[C@@H](NC(=O)[C@@]3(C)COc4cc5c(cc43)OC(F)(F)O5)c3ccc(OC(F)(F)F)cc3O2)CC1 [Example 253, (7R)—N-[(2R,4R)-2-{trans-4-[ethyl(2-hydroxyethyl)carbamoyl]cyclohexyl}-7-(trifluoromethoxy)-3,4-dihydro-2H-1-benzopyran-4-yl]-2,2-difluoro-7-methyl-6,7-dihydro-2H-furo[2,3-f][1,3]benzodioxole-7-carboxamide] | 60 nM | 150%
3 | C[C@]1(C(=O)N[C@@H]2C[C@H]([C@H]3CC[C@H](C(=O)N(CCO)CCO)CC3)Oc3cc(OC(F)(F)F)ccc32)COc2cc3c(cc21)OC(F)(F)O3 [Example 254, (7R)—N-[(2R,4R)-2-{trans-4-[bis(2-hydroxyethyl)carbamoyl]cyclohexyl}-7-(trifluoromethoxy)-3,4-dihydro-2H-1-benzopyran-4-yl]-2,2-difluoro-7-methyl-6,7-dihydro-2H-furo[2,3-f][1,3]benzodioxole-7-carboxamide] | 80 nM | 136%
4 | C[C@]1(C(=O)N[C@@H]2C[C@H]([C@H]3CC[C@H](C(=O)N4C[C@@H](O)[C@H](O)C4)CC3)Oc3cc(OC(F)(F)F)ccc32)COc2cc3c(cc21)OC(F)(F)O3 [Example 255, (7R)—N-[(2R,4R)-2-{trans-4-[(3R,4R)-3,4-dihydroxypyrrolidine-1-carbonyl]cyclohexyl}-7-(trifluoromethoxy)-3,4-dihydro-2H-1-benzopyran-4-yl]-2,2-difluoro-7-methyl-6,7-dihydro-2H-furo[2,3-f][1,3]benzodioxole-7-carboxamide] | 90 nM | 158%
5 | C[C@]1(C(=O)N[C@@H]2C[C@H]([C@H]3CC[C@H](C(=O)N4CCOCC4CO)CC3)Oc3cc(OC(F)(F)F)ccc32)COc2cc3c(cc21)OC(F)(F)O3 (stereo partly drawn) [Example 257, (7R)-2,2-difluoro-N-[(2R,4R)-2-{trans-4-[3-(hydroxymethyl)morpholine-4-carbonyl]cyclohexyl}-7-(trifluoromethoxy)-3,4-dihydro-2H-1-benzopyran-4-yl]-7-methyl-6,7-dihydro-2H-furo[2,3-f][1,3]benzodioxole-7-carboxamide] | 70 nM | 170%
6 | CC(O)CNC(=O)[C@H]1CC[C@H]([C@H]2C[C@@H](NC(=O)[C@@]3(C)COc4cc5c(cc43)OC(F)(F)O5)c3ccc(OC(F)(F)F)cc3O2)CC1 (stereo partly drawn) [Example 258, (7R)-2,2-difluoro-N-[(2R,4R)-2-{trans-4-[(2-hydroxypropyl)carbamoyl]cyclohexyl}-7-(trifluoromethoxy)-3,4-dihydro-2H-1-benzopyran-4-yl]-7-methyl-6,7-dihydro-2H-furo[2,3-f][1,3]benzodioxole-7-carboxamide] | 110 nM | 174%
7 | C[C@]1(C(=O)N[C@@H]2C[C@H]([C@H]3CC[C@H](C(=O)Nc4ccccc4O)CC3)Oc3cc(OC(F)(F)F)ccc32)COc2cc3c(cc21)OC(F)(F)O3 [Example 262, (7R)-2,2-difluoro-N-[(2R,4R)-2-{trans-4-[(2-hydroxyphenyl)carbamoyl]cyclohexyl}-7-(trifluoromethoxy)-3,4-dihydro-2H-1-benzopyran-4-yl]-7-methyl-6,7-dihydro-2H-furo[2,3-f][1,3]benzodioxole-7-carboxamide] | 90 nM | 184%
8 | C[C@]1(C(=O)N[C@@H]2C[C@H]([C@H]3CC[C@H](C(=O)N(CCO)Cc4ccccc4)CC3)Oc3cc(OC(F)(F)F)ccc32)COc2cc3c(cc21)OC(F)(F)O3 [Example 264, (7R)—N-[(2R,4R)-2-{trans-4-[benzyl(2-hydroxyethyl)carbamoyl]cyclohexyl}-7-(trifluoromethoxy)-3,4-dihydro-2H-1-benzopyran-4-yl]-2,2-difluoro-7-methyl-6,7-dihydro-2H-furo[2,3-f][1,3]benzodioxole-7-carboxamide] | 60 nM | 186%

The remaining lines, values ahead:

Row | EC50 | Maximum % activity (%) | Structure (SMILES)
9 | 40 nM | 111% | COc1ccc2c(c1)O[C@@H](c1ccc(C(=O)N3CC(O)(CCO)C3)cn1)C[C@H]2NC(=O)[C@@]1(C)COc2cc3c(cc21)OC(F)(F)O3 [Example 239, (7R)-2,2-difluoro-N-[(2R,4R)-2-{5-[3-hydroxy-3-(2-hydroxyethyl)azetidine-1-carbonyl]pyridin-2-yl}-7-methoxy-3,4-dihydro-2H-1-benzopyran-4-yl]-7-methyl-6,7-dihydro-2H-furo[2,3-f][1,3]benzodioxole-7-carboxamide]
10 | 60 nM | 132% | COc1ccc2c(c1)O[C@@H](c1ccc(C(=O)N3CCOCC3CO)cn1)C[C@H]2NC(=O)[C@@]1(C)COc2cc3c(cc21)OC(F)(F)O3 (stereo partly drawn) [Example 240, (7R)-2,2-difluoro-N-[(2R,4R)-2-{5-[3-(hydroxymethyl)morpholine-4-carbonyl]pyridin-2-yl}-7-methoxy-3,4-dihydro-2H-1-benzopyran-4-yl]-7-methyl-6,7-dihydro-2H-furo[2,3-f][1,3]benzodioxole-7-carboxamide]
11 | 40 nM | 110% | COc1ccc2c(c1)O[C@@H](c1ccc(C(=O)NCC(C)O)cn1)C[C@H]2NC(=O)[C@@]1(C)COc2cc3c(cc21)OC(F)(F)O3 (stereo partly drawn) [Example 241, 6-[(2R,4R)-4-{[(7R)-2,2-difluoro-7-methyl-6,7-dihydro-2H-furo[2,3-f][1,3]benzodioxole-7-carbonyl]amino}-7-methoxy-3,4-dihydro-2H-1-benzopyran-2-yl]-N-(2-hydroxypropyl)pyridine-3-carboxamide]
12 | 40 nM | 116% | COc1ccc2c(c1)O[C@@H](c1ccc(C(=O)NC(C)CO)cn1)C[C@H]2NC(=O)[C@@]1(C)COc2cc3c(cc21)OC(F)(F)O3 (stereo partly drawn) [Example 242, 6-[(2R,4R)-4-{[(7R)-2,2-difluoro-7-methyl-6,7-dihydro-2H-furo[2,3-f][1,3]benzodioxole-7-carbonyl]amino}-7-methoxy-3,4-dihydro-2H-1-benzopyran-2-yl]-N-(1-hydroxypropan-2-yl)pyridine-3-carboxamide]
13 | 30 nM | 114% | COc1ccc2c(c1)O[C@@H](c1ccc(C(=O)NCCO)cn1)C[C@H]2NC(=O)[C@@]1(C)COc2cc3c(cc21)OC(F)(F)O3 [Example 244, 6-[(2R,4R)-4-{[(7R)-2,2-difluoro-7-methyl-6,7-dihydro-2H-furo[2,3-f][1,3]benzodioxole-7-carbonyl]amino}-7-methoxy-3,4-dihydro-2H-1-benzopyran-2-yl]-N-(2-hydroxyethyl)pyridine-3-carboxamide]
14 | 50 nM | 107% | COc1ccc2c(c1)O[C@@H](c1ccc(C(=O)NC[C@H]3C[C@H](O)C3)cn1)C[C@H]2NC(=O)[C@@]1(C)COc2cc3c(cc21)OC(F)(F)O3 [Example 245, 6-[(2R,4R)-4-{[(7R)-2,2-difluoro-7-methyl-6,7-dihydro-2H-furo[2,3-f][1,3]benzodioxole-7-carbonyl]amino}-7-methoxy-3,4-dihydro-2H-1-benzopyran-2-yl]-N-[(trans-3-hydroxycyclobutyl)methyl]pyridine-3-carboxamide]
15 | 80 nM | 125% | COCC(CO)NC(=O)c1ccc([C@H]2C[C@@H](NC(=O)[C@@]3(C)COc4cc5c(cc43)OC(F)(F)O5)c3ccc(OC)cc3O2)nc1 (stereo partly drawn) [Example 246, 6-[(2R,4R)-4-{[(7R)-2,2-difluoro-7-methyl-6,7-dihydro-2H-furo[2,3-f][1,3]benzodioxole-7-carbonyl]amino}-7-methoxy-3,4-dihydro-2H-1-benzopyran-2-yl]-N-(1-hydroxy-3-methoxypropan-2-yl)pyridine-3-carboxamide]
16 | 100 nM | 110% | COc1ccc2c(c1)O[C@@H](c1ccc(C(=O)N3C[C@H](O)[C@@H](O)C3)cn1)C[C@H]2NC(=O)[C@@]1(C)COc2cc3c(cc21)OC(F)(F)O3 [Example 249, (7R)—N-[(2R,4R)-2-{5-[(3S,4S)-3,4-dihydroxypyrrolidine-1-carbonyl]pyridin-2-yl}-7-methoxy-3,4-dihydro-2H-1-benzopyran-4-yl]-2,2-difluoro-7-methyl-6,7-dihydro-2H-furo[2,3-f][1,3]benzodioxole-7-carboxamide]
17 | 80 nM | 163% | CC(CO)NC(=O)[C@H]1CC[C@H]([C@H]2C[C@@H](NC(=O)[C@@]3(C)COc4cc5c(cc43)OC(F)(F)O5)c3ccc(OC(F)(F)F)cc3O2)CC1 (stereo partly drawn) [Example 259, (7R)-2,2-difluoro-N-[(2R,4R)-2-{trans-4-[(1-hydroxypropan-2-yl)carbamoyl]cyclohexyl}-7-(trifluoromethoxy)-3,4-dihydro-2H-1-benzopyran-4-yl]-7-methyl-6,7-dihydro-2H-furo[2,3-f][1,3]benzodioxole-7-carboxamide]
